# Laboratory results taken from patent US10295537B2, “Biorecognition elements for rapid detection of biocontamination” (The United States of America, as represented by the …, priority 2017, dated 2019).
# Ends that are not written are not given here.
# Legend:
# P. stutzeri = test: Detection of bacteria recovered from spiked 1 L Jet A fuel with peptide-QD545 (LOD, fluorescence); assay type: cell-based; settings: for LOD (CFU) / Fluorescence (RFU): 1 L Jet A; for LOD (CFU): 1.5 μM peptide-QD; for detection possible down to, in some instances: below reproducible LOD; for Fluorescence (RFU): at LOD
# Experimental: (§1) To test the applicability of the peptide BRE-QD chemistry in the detection of bacteria in fuel and characterize the LOD in such system, bacterial cells from 1 L jet fuel samples spiked with different levels of bacteria were recovered, labeled, and detected.
# (§2) One liter Jet A fuel samples were amended with 1 mL of 1×PBS containing either A. venetianus ATCC 31012 or P. stutzeri at the appropriate test concentration was added to 1 L of Jet A fuel. The inoculated jet fuel samples were thoroughly mixed by vortex for 1 min and allowed to stand for 20 min to 30 min. To recover the cells, 1 mL of 1×PBS, named bacterial recovery solution (“BRS”), was added to the jet fuel samples, the samples shaken by hand, allowed stand for 5 min, and, then, 1 mL of the aqueous phase was collected using a long serological pipette. The 1 mL of solution with bacteria was centrifuged for 5 min at 11000×g, and washed three times with 1 mL of 1×PBS. Bacterial pellets were individually labeled using a final concentration 1.5 μM peptide-QD. The LOD was defined as the lowest concentration level that could be determined to be statistically different from QD labeled cells from the results of multiple testers. The actual cell level (colony-forming units, “CFU”) detected was determined by plating a portion of the sample after being subjected to the labeled procedure.
# (§3) Cells in the 1 L of fuel were recovered with 1 mL of BRS. Efficient labeling of the bacteria was indicated by high levels of fluorescence detected from the cell wall by fluorescence microscopy (FIG. 13 and Table 10, below). FIG. 14 is a similar image but of fungus (Hormoconis) labeled by peptide-QD605. The LOD was reliably determined from assays performed by multiple testers.
# A. venetianus ATCC 31012 = test: as above; assay type: cell-based; settings: for LOD (CFU): 1.5 μM peptide-QD; for detection possible down to, in some instances: below reproducible LOD
# Experimental: as §1, §2, §3
# P. stutzeri cells = test: Fluorometry of P. stutzeri cells labeled with peptide-QD525 conjugates; assay type: cell-based; settings: emission peak at 525 nm, 1×10^9 P. stutzeri cells
# Experimental: The emission peak fluorescence at 525 nm of 1×10^9 P. stutzeri cells labeled with peptide-QD525 conjugates was measured in a fluorometer and relative fluorescence units (“RFIU”) were compared (Table 6 and 7, above). Peptides OBP11 and OBP12 targeting OprF, and peptide OPP1 targeting Opr86 presented fluorescence levels that greatly surpassed the other selected peptides for the respective target. OPP1, OBP11, and OBP12 were selected for further characterization and validation.
# (§4) Bacterial stocks for experimentation were prepared by harvesting overnight grown bacterial cells by centrifugation at 11000×g for 15 min (at 4° C.), washed once with 1×PBS, pH 7.2, and re-suspended in 1×PBS to a concentration of 1×10^9 cells/mL. Bacterial titers were determined by measuring optical density at 600 nm and confirmed by colony counting on LB agar plates. Cell pellets produced by centrifuging 1 mL of the 1×10^9 cells/mL stock were re-suspended in 38 μL of 1×PBS and 62 μL of 2.4 μM peptide-QD was added to a final concentration of 1.5 μM. Cells were incubated for 30 min at 25° C. Cell pellets were washed three-times with 0.5 mL PBS and re-suspended in 500 μL PBS for fluorescence assays and imaging. Dilutions ranging from 1×10^9 cells to 1×10^4 cells were prepared using standard bacteriological techniques and 0.5 mL samples were used for fluorescence measurements.
# (§5) Emission spectra were obtained using Cary Eclipse Fluorimeter with excitation at 330 nm, scan rate of 120 nm/imin, and PMT voltage of 1000V. Spectra were corrected for background and dilution factor when appropriate.
# Opr86 = test: Solution biopanning against biotinylated Opr86 extracellular loop fragment, three rounds of selection; assay type: binding, P. aeruginosa; settings: Bushnell-Haas pH 8.5 with 1% Jet-A
# Experimental: Generally, solution-phase biopanning was carried out as described by the manufacturer (New England Biolabs, Ipswich, Mass.) with some modifications, including the changing of pH from 7.0 to 5.5 and 8.5 and adding 1% v/v of Jet A fuel. The first round of selection was carried out by diluting Ph.D.-7 bacteriophage library 100-fold in 0.1% Tris buffer saline plus Tween 20 (0.1% TBST) at the appropriate pH for selection plus fuel. Subsequently, the phage library was incubated with 1 μg of N-terminal biotinylated target protein fragment (OprF1: […] (SEQ. ID No. 1), OprF2: ADIKNLADFMK QYPSTSTT (SEQ. ID No. 2), Opr86: […] STP (SEQ. ID No. 3)) for 1 hr at 25° C. Phage-protein complexes were captured with 50 μL of streptavidin magnetic microbeads, unbound phages were removed, and the pellet sample washed 10-times with 1 mL of 1× Tris buffer saline (“TBS”) plus 0.05% TBST to remove weakly bound phage particles. Bound bacteriophages were eluted from the beads by lowering the pH (0.2 M Glycine-HCl, pH 2.2) while rotating gently for 10 min at 25° C. After neutralization with 1 M Tris-HCl, pH 9.1, eluted phages were amplified by infection of E. coli strain ER 2738 grown in Luria-Bertani (“LB”) broth medium until early-log phase (OD600 0.1-0.5). Titer of the amplified phage (more than 10^10 pfu/mL) was determined by infection into E. coli ER2738 and subsequent growth in selective medium containing X gal/IPTG. Amplified phages from round 1 were pre-cleared with streptavidin-coated magnetic microbeads (50 μL) to further remove non-specific binders and then used as the input phage for round 2 of selection. Enrichment of the bacteriophage pool was achieved by performing […] of selection under the appropriate pH plus jet fuel condition. Genomic DNA from individual clones was sequenced by GenScript (Piscataway, N.J.).
# The particular region of the Opr86 extracellular loop of sequence […] (SEQ. ID No. 3) was chemically synthesized with a biotin capture element and used as target epitope for BRE development in solution biopanning in Bushnell-Haas, pH 8.5, supplemented with 1% Jet-A. Following the previously established procedure for OprF, several unique Opr86 peptide BREs (“OPPs”) were identified after three rounds of selection (Table 7, above).
# [1] = system: Gram negative bacteria (A. venetianus and Pseudomonas spp.); test: Fluorometry of fuel degrading bacteria labeled with peptide-QD545 conjugates (FIG. 11); assay type: cell-based; settings: for detection of Gram negative bacteria by fluorometer: 1×10^9 cells, QD545 conjugates, FIG. 11
# Experimental: (§6) To characterize the specificity of the peptide BRE-QD545 conjugates for the intended bacterial groups, fluorescence imaging and fluorometric analysis were performed using different Gram negative and Gram positive fuel degrading bacteria. As such, cultures comprising 1×10^9 cells of Gram negative bacteria (P. stutzeri, P. alkaligenes, P. aeruginosa and A. venetianus) and Gram positive bacteria (Arthrobacter sp. and Lynsinibacillus sp.) were labeled with OPP1, OBP11 and OBP12 biofunctionalized QD545 and visualized using fluorescence microscopy (FIGS. 5-10) and the fluorescence quantified using a fluorometer (FIG. 11).
# as §4, §5
# [2] = molecular target: biotinylated bovine serum albumin (BSA) (Bos taurus, UniProt P02769); test: Biopanning against biotinylated BSA to identify target-unrelated peptides; assay type: binding; settings: phage displaying the peptide, round 3
# Sequence of biotinylated bovine serum albumin (BSA) (P02769 25-607): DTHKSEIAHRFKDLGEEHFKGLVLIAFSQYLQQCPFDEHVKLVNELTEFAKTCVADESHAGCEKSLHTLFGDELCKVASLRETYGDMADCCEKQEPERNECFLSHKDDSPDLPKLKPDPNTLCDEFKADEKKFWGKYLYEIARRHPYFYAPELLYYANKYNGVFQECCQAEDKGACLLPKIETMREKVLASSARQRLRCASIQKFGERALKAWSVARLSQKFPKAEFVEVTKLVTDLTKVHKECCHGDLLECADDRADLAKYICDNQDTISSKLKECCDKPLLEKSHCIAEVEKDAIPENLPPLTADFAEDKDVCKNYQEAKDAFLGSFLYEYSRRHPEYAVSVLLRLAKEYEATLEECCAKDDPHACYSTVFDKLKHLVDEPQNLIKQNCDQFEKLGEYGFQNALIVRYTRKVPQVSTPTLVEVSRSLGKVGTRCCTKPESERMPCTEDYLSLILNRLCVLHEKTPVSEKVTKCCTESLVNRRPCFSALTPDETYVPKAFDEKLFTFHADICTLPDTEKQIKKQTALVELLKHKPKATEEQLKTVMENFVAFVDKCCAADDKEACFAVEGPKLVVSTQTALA
# Description: The phage library was then screened to identify target-unrelated peptides by using biotinylated bovine serum albumin (“BSA”) as a target for biopanning.
# [3] = system: Gram negative (P. stutzeri, P. alkaligenes, P. aeruginosa, A. venetianus) and Gram positive (Arthrobacter sp., Lynsinibacillus sp.) bacteria; test: Fluorescence microscopy of fuel degrading bacteria labeled with peptide BRE-QD545; assay type: cell-based; settings: 1×10^9 cells, QD545, 1.5 μM
# Experimental: as §6, §4
# 10 μL of the prepared sample was placed on a microscope slide, covered with a coverslip, and visualized on an Nikon Eclipse Ti-E inverted microscope equipped with X-Cite LED lamp, a fluorescence filter set (a bandpass exciter 405 nm and a longpass emission filter), a 1.25-numerical-aperture oil-immersion objective (DPlan 100×, Nikon). Images were captured by Nikon DS-sCMOS camera.
substance,measurement,setting,value
QD545-OBP11: peptide OBP11 conjugated to quantum dot QD545 (PIKTNRK; also: conjugated to quantum dot QD545),LOD,P. stutzeri,5×10^5 CFU/mL of BRS
same,LOD (CFU),P. stutzeri,5 × 10^5 CFU
same,"detection possible down to, in some instances",P. stutzeri,5×10^4 CFU/mL of BRS
same,LOD,A. venetianus ATCC 31012,5×10^5 CFU/mL of BRS
same,LOD (CFU),A. venetianus ATCC 31012; 1 L Jet A,5 × 10^5 CFU
same,"detection possible down to, in some instances",A. venetianus ATCC 31012,5×10^4 CFU/mL of BRS
"M H N L N L L (MHNLNLL; Artificial sequence obtained through biopanning.) [OPP2, Opr86 peptide BRE]",Fluorescence (RFU),P. stutzeri cells,1847 ± 52 RFU
same,% Abundance,Opr86,2%
QD545-OPP1: peptide OPP1 conjugated to quantum dot QD545 (PRIRKSH; also: conjugated to quantum dot QD545),LOD,P. stutzeri,5×10^4 CFU/mL of BRS
same,LOD (CFU),P. stutzeri,5 × 10^5 CFU
same,Fluorescence (RFU),P. stutzeri,820 RFU
same,"detection possible down to, in some instances",P. stutzeri,5×10^3 CFU/mL of BRS
same,LOD,A. venetianus ATCC 31012,5×10^4 CFU/mL of BRS
same,LOD (CFU),A. venetianus ATCC 31012; 1 L Jet A,5 × 10^5 CFU
same,Fluorescence (RFU),"A. venetianus ATCC 31012; 1 L Jet A, at LOD",773 RFU
same,"detection possible down to, in some instances",A. venetianus ATCC 31012,5×10^3 CFU/mL of BRS
same,detection of Gram negative bacteria by fluorometer,[1],high fluorescence levels with all Gram negative bacteria tested
QMLLRLP (Artificial sequence obtained through biopanning.) [OBP9],Fluorescence (RFU),P. stutzeri cells,3338 ± 590 RFU
"L P S T I H R (LPSTIHR; Artificial sequence obtained through biopanning.) [OPP3, Opr86 peptide BRE]",Fluorescence (RFU),P. stutzeri cells,2251 ± 63 RFU
same,% Abundance,Opr86,2%
"R K K S R I R (RKKSRIR; Artificial sequence obtained through biopanning.) [OPP6, Opr86 peptide BRE]",Fluorescence (RFU),P. stutzeri cells,4126 ± 98 RFU
same,% Abundance,Opr86,2%
IQTNPTM (Artificial sequence obtained through biopanning.),cross-reaction with BSA,[2],cross-react with BSA
"P R I R K S H (PRIRKSH; Artificial sequence obtained through biopanning.) [OPP1, Opr86 peptide BRE]",Fluorescence (RFU),P. stutzeri cells,12258 ± 2060 RFU
same,% Abundance,Opr86,3%
same,labeling of bacteria in fluorescence micrographs,[3],specifically labeled Gram negative bacteria but not the Gram positive bacteria
RRSNSQL (Artificial sequence obtained through biopanning.) [OBP4],Fluorescence (RFU),P. stutzeri cells,4520 ± 473 RFU
NMTNPPP (Artificial sequence obtained through biopanning.) [OBP6],Fluorescence (RFU),P. stutzeri cells,2080 ± 280 RFU
PKRTPRH (Artificial sequence obtained through biopanning.) [OBP12],Fluorescence (RFU),P. stutzeri cells,6443 ± 957 RFU
same,detection of Gram negative bacteria by fluorometer,[1],able to detect all Gram negative bacteria tested
same,LOD of P. stutzeri compared among all the BREs,[1]; P. stutzeri,highest LOD
same,labeling of bacteria in fluorescence micrographs,[3],specifically labeled Gram negative bacteria but not the Gram positive bacteria
QITLRST (Artificial sequence obtained through biopanning.) [OBP7],Fluorescence (RFU),P. stutzeri cells,2625 ± 543 RFU
QD545-OBP12: peptide OBP12 conjugated to quantum dot QD545 (PKRTPRH; also: conjugated to quantum dot QD545),LOD,P. stutzeri,5×10^5 CFU/mL of BRS
same,LOD (CFU),P. stutzeri,5 × 10^5 CFU
same,Fluorescence (RFU),P. stutzeri,"12,205 RFU"
same,"detection possible down to, in some instances",P. stutzeri,5×10^4 CFU/mL of BRS
same,LOD,A. venetianus ATCC 31012,5×10^5 CFU/mL of BRS
same,LOD (CFU),A. venetianus ATCC 31012; 1 L Jet A,5 × 10^5 CFU
same,"detection possible down to, in some instances",A. venetianus ATCC 31012,5×10^4 CFU/mL of BRS
PIKTNRK (Artificial sequence obtained through biopanning.) [OBP11],Fluorescence (RFU),P. stutzeri cells,5308 ± 501 RFU
same,detection of Gram negative bacteria by fluorometer,[1],able to detect all Gram negative bacteria tested
same,labeling of bacteria in fluorescence micrographs,[3],specifically labeled Gram negative bacteria but not the Gram positive bacteria
"I I T M K R R (IITMKRR; Artificial sequence obtained through biopanning.) [OPP5, Opr86 peptide BRE]",Fluorescence (RFU),P. stutzeri cells,4408 ± 225 RFU
same,% Abundance,Opr86,3%
"L R P L M N R (LRPLMNR; Artificial sequence obtained through biopanning.) [OPP4, Opr86 peptide BRE]",Fluorescence (RFU),P. stutzeri cells,1383 ± 74 RFU
same,% Abundance,Opr86,3%
